Source: patent EP0394553A2, “Use of fluorine containing pyridone carboxylic acid derivatives for preparing a medicament for the treatment of HIV infections” (DAIICHI PHARMACEUTICAL CO., LTD., priority 1989, dated 1990)
Where two headings read alike, the source gives them in different places.

Test system: HIV (LAV 1)
Assay: microbe, parasite or virus in culture
Conditions: for viability at 1 µg/mL / viability at 2.5 µg/mL / viability at 5 µg/mL / viability at 10 µg/mL: Human immunodeficiency virus 1, CCRF-CEM
Procedure: Human T cell-derived, T4 antigen-positive CEM cells (provided by the Institut Pasteur, France) were used as host cells of HIV. Cell culture was carried out in a carbon dioxide-containing atmosphere in an incubator maintained at 37°C according to a conventional method [cf. […] The culture supernatant (5×10⁶ TCID₅₀/ml) obtained by subjecting CEM cells to HIV (LAV 1) infection and stored at -70°C was used as the HIV source.
The medium for cell culture (10 ml) placed in a plastic culture flask (25 cm²) was inoculated with CEM cells at a cell density of 2.5×10⁵ cells/ml. After 3 days of incubation, the culture was transferred to a 15-ml centrifuge tube and subjected to centrifugation at 1,000 revolutions per minute for 5 minutes for sedimentation of cells and removal of the culture medium.
The stock viral suspension was added to the host cells thus prepared to an MOI of 0.05 and the mixture was maintained at 37°C for 90 minutes with stirring at 30-minute intervals for viral adsorption. The medium was added to HIV-infected cells to a cell density of 5.0×10⁵ cells/ml to give an HIV-infected cell suspension.
A mixture (1.0 ml) of the three constituents mentioned below was added to each well of a 24-well plastic culture plate and the test substance final concentration was adjusted to 10 mcg/ml, 5 mcg/ml, 2.5 mcg/ml or 1 mcg/ml. The "no addition" wells (0 mcg/ml) served as controls.
After 4 days of incubation following viral infection, the cells in each well on the 24-well culture plate were suspended uniformly by pipetting and a 0.5-ml portion of the suspension was separated. A 2.0-ml portion of test substance-free fresh medium was added to the remaining 0.5-ml portion of the cell suspension, followed by incubation.
Seven days after viral infection, pipetting was performed to give a uniform cell suspension in each well and a 0.5-ml portion of the suspension was separated.
Incubation was continued and, 10 days after viral infection, a uniform cell suspension was produced in the same manner in each well and a 1.5-ml portion thereof was separated. A fresh 2.0-ml portion of the medium free of (or containing) the test substance was added to the well, followed by further incubation.
Fifteen days after viral infection, the cells in each well were suspended uniformly in the same manner in the medium and a 2.0-ml portion of the suspension was separated. A fresh 2.0-ml portion of the medium free of (or containing) the test substance was added to the remaining 0.5 ml of the cell suspension and incubation was continued.
Medium exchange was performed in the same manner 20 days and 25 days after viral infection.
The cell suspensions collected 4 days, 7 days, 10 days, 20 days and 30 days after viral infection were tested for viable cell count and viable cell percentage by trypan blue staining. At the same time, viral antigen-positive cell percentage determination was carried out by immunofluorescence using an anti-HIV antiserum isolated from a healthy carrier of HIV.
The numerical values given each is the mean for the respective two wells on the culture plate. The viable cell count is the total cell count minus the count of dead cells stained with trypan blue. The viable cell percentage is the percentage of viable cells among all the cells including dead cells. The viral antigen-positive cell percentage is the percentage of cells indicating antigen expression as found among all the cells including dead cells.

[1] = 1 mcg/ml, 4-day addition, after 4 days
[2] = 1 mcg/ml, 4-day addition, after 7 days
[3] = 1 mcg/ml, 4-day addition, after 10 days
[4] = 1 mcg/ml, 4-day addition, after 20 days
[5] = 1 mcg/ml, continuous addition, after 4 days
[6] = 1 mcg/ml, continuous addition, after 7 days
[7] = 1 mcg/ml, continuous addition, after 10 days
[8] = 2.5 mcg/ml, 4-day addition, after 4 days
[9] = 2.5 mcg/ml, 4-day addition, after 7 days
[10] = 2.5 mcg/ml, 4-day addition, after 10 days
[11] = 2.5 mcg/ml, 4-day addition, after 20 days
[12] = 2.5 mcg/ml, 4-day addition, after 30 days
[13] = 2.5 mcg/ml, continuous addition, after 4 days
[14] = 2.5 mcg/ml, continuous addition, after 7 days
[15] = 2.5 mcg/ml, continuous addition, after 10 days
[16] = 2.5 mcg/ml, continuous addition, after 20 days
[17] = 2.5 mcg/ml, continuous addition, after 30 days
[18] = 5 mcg/ml, 4-day addition, after 4 days
[19] = 5 mcg/ml, 4-day addition, after 7 days
[20] = 5 mcg/ml, 4-day addition, after 10 days
[21] = 5 mcg/ml, 4-day addition, after 20 days
[22] = 5 mcg/ml, 4-day addition, after 30 days
[23] = 5 mcg/ml, continuous addition, after 4 days
[24] = 5 mcg/ml, continuous addition, after 7 days
[25] = 5 mcg/ml, continuous addition, after 10 days
[26] = 5 mcg/ml, continuous addition, after 20 days
[27] = 5 mcg/ml, continuous addition, after 30 days
[28] = 10 mcg/ml, 4-day addition, after 4 days
[29] = 10 mcg/ml, 4-day addition, after 7 days
[30] = 10 mcg/ml, 4-day addition, after 10 days
[31] = 10 mcg/ml, 4-day addition, after 20 days
[32] = 10 mcg/ml, 4-day addition, after 30 days
[33] = 10 mcg/ml, continuous addition, after 4 days
[34] = 10 mcg/ml, continuous addition, after 7 days
[35] = 10 mcg/ml, continuous addition, after 10 days
[36] = 10 mcg/ml, continuous addition, after 20 days
[37] = 10 mcg/ml, continuous addition, after 30 days

Q: Which results are given for `CC1COc2c(N3CCN(C)CC3)c(F)cc3c(=O)c(C(=O)O)cn1c23` (racemic) [OFLX, (±)-9-fluoro-3-methyl-10-(4-methyl-1-piperazinyl)-7-oxo-2,3-dihydro-7H-pyrido[1,2,3-de][1,4]benzoxazine-6-carboxylic acid]?
A: Viable cell count [1]: 260 × 10⁴ cells/ml; Viral antigen-positive cell percentage [1]: 88%; Viable cell count [2]: 43 × 10⁴ cells/ml; Viral antigen-positive cell percentage [2]: 80%; Viable cell count [3]: 13 × 10⁴ cells/ml; Viral antigen-positive cell percentage [3]: 77%; Viable cell count [4]: 34 × 10⁴ cells/ml; Viral antigen-positive cell percentage [4]: 16%; Viable cell count (1 mcg/ml, 4-day addition, after 30 days): 10 × 10⁴ cells/ml; Viable cell count [5]: 300 × 10⁴ cells/ml; Viral antigen-positive cell percentage [5]: 82%; Viable cell count [6]: 39 × 10⁴ cells/ml; Viral antigen-positive cell percentage [6]: 78%; Viable cell count [7]: 46 × 10⁴ cells/ml; Viral antigen-positive cell percentage [7]: 85%; Viable cell count (1 mcg/ml, continuous addition, after 20 days): 15 × 10⁴ cells/ml; Viable cell count (1 mcg/ml, continuous addition, after 30 days): 11 × 10⁴ cells/ml; Viable cell count [8]: 260 × 10⁴ cells/ml; Viral antigen-positive cell percentage [8]: 80%; Viable cell count [9]: 58 × 10⁴ cells/ml; Viral antigen-positive cell percentage [9]: 67%; Viable cell count [10]: 83 × 10⁴ cells/ml; Viral antigen-positive cell percentage [10]: 49%; Viable cell count [11]: 300 × 10⁴ cells/ml; Viral antigen-positive cell percentage [11]: 4%; Viable cell count [12]: 300 × 10⁴ cells/ml; Viral antigen-positive cell percentage [12]: 6%; Viable cell count [13]: 260 × 10⁴ cells/ml; Viral antigen-positive cell percentage [13]: 83%; Viable cell count [14]: 59 × 10⁴ cells/ml; Viral antigen-positive cell percentage [14]: 62%; Viable cell count [15]: 110 × 10⁴ cells/ml; Viral antigen-positive cell percentage [15]: 38%; Viable cell count [16]: 220 × 10⁴ cells/ml; Viral antigen-positive cell percentage [16]: 17%; Viable cell count [17]: 360 × 10⁴ cells/ml; Viral antigen-positive cell percentage [17]: 10%; Viable cell count [18]: 250 × 10⁴ cells/ml; Viral antigen-positive cell percentage [18]: 82%; Viable cell count [19]: 60 × 10⁴ cells/ml; Viral antigen-positive cell percentage [19]: 50%; Viable cell count [20]: 170 × 10⁴ cells/ml; Viral antigen-positive cell percentage [20]: 33%; Viable cell count [21]: 320 × 10⁴ cells/ml; Viral antigen-positive cell percentage [21]: 5%; Viable cell count [22]: 330 × 10⁴ cells/ml; Viral antigen-positive cell percentage [22]: 4%; Viable cell count [23]: 340 × 10⁴ cells/ml; Viral antigen-positive cell percentage [23]: 75%; Viable cell count [24]: 58 × 10⁴ cells/ml; Viral antigen-positive cell percentage [24]: 76%; Viable cell count [25]: 160 × 10⁴ cells/ml; Viral antigen-positive cell percentage [25]: 40%; Viable cell count [26]: 300 × 10⁴ cells/ml; Viral antigen-positive cell percentage [26]: 11%; Viable cell count [27]: 290 × 10⁴ cells/ml; Viral antigen-positive cell percentage [27]: 2%; Viable cell count [28]: 260 × 10⁴ cells/ml; Viral antigen-positive cell percentage [28]: 74%; Viable cell count [29]: 63 × 10⁴ cells/ml; Viral antigen-positive cell percentage [29]: 63%; Viable cell count [30]: 280 × 10⁴ cells/ml; Viral antigen-positive cell percentage [30]: 40%; Viable cell count [31]: 310 × 10⁴ cells/ml; Viral antigen-positive cell percentage [31]: 14%; Viable cell count [32]: 320 × 10⁴ cells/ml; Viral antigen-positive cell percentage [32]: 3%; Viable cell count [33]: 280 × 10⁴ cells/ml; Viral antigen-positive cell percentage [33]: 78%; Viable cell count [34]: 55 × 10⁴ cells/ml; Viral antigen-positive cell percentage [34]: 72%; Viable cell count [35]: 130 × 10⁴ cells/ml; Viral antigen-positive cell percentage [35]: 43%; Viable cell count [36]: 290 × 10⁴ cells/ml; Viral antigen-positive cell percentage [36]: 9%; Viable cell count [37]: 390 × 10⁴ cells/ml; Viral antigen-positive cell percentage [37]: 6%; viability at 1 µg/mL (96 h, read-out: Viable cell percentage, 1 mcg/ml, 4-day addition, after 4 days): 96%; viability at 1 µg/mL (96 h, read-out: Viable cell percentage, 1 mcg/ml, continuous addition, after 4 days): 94%; viability at 2.5 µg/mL (96 h, read-out: Viable cell percentage, 2.5 mcg/ml, 4-day addition, after 4 days): 96%; viability at 2.5 µg/mL (96 h, read-out: Viable cell percentage, 2.5 mcg/ml, continuous addition, after 4 days): 94%; viability at 5 µg/mL (96 h, read-out: Viable cell percentage, 5 mcg/ml, 4-day addition, after 4 days): 93%; viability at 5 µg/mL (96 h, read-out: Viable cell percentage, 5 mcg/ml, continuous addition, after 4 days): 98%; viability at 10 µg/mL (96 h, read-out: Viable cell percentage, 10 mcg/ml, 4-day addition, after 4 days): 94%; viability at 10 µg/mL (96 h, read-out: Viable cell percentage, 10 mcg/ml, continuous addition, after 4 days): 95%; viability at 1 µg/mL (168 h, read-out: Viable cell percentage, 1 mcg/ml, continuous addition, after 7 days): 55%; viability at 2.5 µg/mL (168 h, read-out: Viable cell percentage, 2.5 mcg/ml, continuous addition, after 7 days): 64%; viability at 5 µg/mL (168 h, read-out: Viable cell percentage, 5 mcg/ml, continuous addition, after 7 days): 64%; viability at 10 µg/mL (168 h, read-out: Viable cell percentage, 10 mcg/ml, continuous addition, after 7 days): 66%; viability at 1 µg/mL (240 h, read-out: Viable cell percentage, 1 mcg/ml, continuous addition, after 10 days): 42%; viability at 2.5 µg/mL (240 h, read-out: Viable cell percentage, 2.5 mcg/ml, continuous addition, after 10 days): 81%; viability at 5 µg/mL (240 h, read-out: Viable cell percentage, 5 mcg/ml, continuous addition, after 10 days): 87%; viability at 10 µg/mL (240 h, read-out: Viable cell percentage, 10 mcg/ml, continuous addition, after 10 days): 87%; viability at 1 µg/mL (480 h, read-out: Viable cell percentage, 1 mcg/ml, continuous addition, after 20 days): 75%; viability at 2.5 µg/mL (480 h, read-out: Viable cell percentage, 2.5 mcg/ml, continuous addition, after 20 days): 94%; viability at 5 µg/mL (480 h, read-out: Viable cell percentage, 5 mcg/ml, continuous addition, after 20 days): 95%; viability at 10 µg/mL (480 h, read-out: Viable cell percentage, 10 mcg/ml, continuous addition, after 20 days): 92%; viability at 1 µg/mL (read-out: Viable cell percentage, 1 mcg/ml, 4-day addition, after 7 days): 53%; viability at 1 µg/mL (read-out: Viable cell percentage, 1 mcg/ml, 4-day addition, after 10 days): 21%; viability at 1 µg/mL (read-out: Viable cell percentage, 1 mcg/ml, 4-day addition, after 20 days): 87%; viability at 1 µg/mL (read-out: Viable cell percentage, 1 mcg/ml, 4-day addition, after 30 days): 37%; viability at 1 µg/mL (read-out: Viable cell percentage, 1 mcg/ml, continuous addition, after 30 days): 33%; viability at 2.5 µg/mL (read-out: Viable cell percentage, 2.5 mcg/ml, 4-day addition, after 7 days): 67%; viability at 2.5 µg/mL (read-out: Viable cell percentage, 2.5 mcg/ml, 4-day addition, after 10 days): 67%; viability at 2.5 µg/mL (read-out: Viable cell percentage, 2.5 mcg/ml, 4-day addition, after 20 days): 95%; viability at 2.5 µg/mL (read-out: Viable cell percentage, 2.5 mcg/ml, 4-day addition, after 30 days): 97%; viability at 2.5 µg/mL (read-out: Viable cell percentage, 2.5 mcg/ml, continuous addition, after 30 days): 97%; viability at 5 µg/mL (read-out: Viable cell percentage, 5 mcg/ml, 4-day addition, after 7 days): 59%; viability at 5 µg/mL (read-out: Viable cell percentage, 5 mcg/ml, 4-day addition, after 10 days): 77%; viability at 5 µg/mL (read-out: Viable cell percentage, 5 mcg/ml, 4-day addition, after 20 days): 86%; viability at 5 µg/mL (read-out: Viable cell percentage, 5 mcg/ml, 4-day addition, after 30 days): 97%; viability at 5 µg/mL (read-out: Viable cell percentage, 5 mcg/ml, continuous addition, after 30 days): 94%; viability at 10 µg/mL (read-out: Viable cell percentage, 10 mcg/ml, 4-day addition, after 7 days): 73%; viability at 10 µg/mL (read-out: Viable cell percentage, 10 mcg/ml, 4-day addition, after 10 days): 85%; viability at 10 µg/mL (read-out: Viable cell percentage, 10 mcg/ml, 4-day addition, after 20 days): 92%; viability at 10 µg/mL (read-out: Viable cell percentage, 10 mcg/ml, 4-day addition, after 30 days): 95%; viability at 10 µg/mL (read-out: Viable cell percentage, 10 mcg/ml, continuous addition, after 30 days): 95%
